Measured values as given in US8486965B2, “Pyrrolo[2,3-b]pyridine derivative and use thereof for treatment of cancer” (Takeda Pharmaceutical Company Limited, priority 2009, dated 2013).

These compounds were tested on Hedgehog signal transduction system (Smo) (assay: Gli reporter luciferase assay in NIH-3T3/Gli reporter cells stimulated with mouse Shh-N end fragment). Settings: NIH3T3; 1 μM compound; NIH-3T3/Gli reporter cells with mouse Shh-N end fragment culture supernatant, 48 hr; luciferase activity, control without compound as 100; read-out: inhibition rate (%) at 1 μM.
Type: cell-based
Text: Inhibition of the Hedgehog signal transduction system can be measured, for example, by quantifying a decrease in the expression level of a reporter gene connected to the downstream of the Gli binding site based on the fluorescence intensity according to the following Experimental Example 1. Alternatively, it can be measured by quantifying the expression of Gli-1 mRNA in a cell extract by quantitative PCR method and the like. A compound that inhibits Hedgehog signal targets Smo, which can be confirmed, for example, by binding fluorescence-labeled Cyclopamine and a test compound to cells expressing Smo, measuring the fluorescence level of the cell, and comparing the value with that without addition of a test compound to find a decrease.
Gli reporter plasmid was constructed by inserting 8×Gli-binding site and chicken δ-crystalline promoter into the upstream of luc+ of pGL3 (Promega).
prepared in reference to the base sequence described in GenBank accession No.; X02187, and chicken genome DNA (Clontech) as a template. PCR reaction was performed using Pfu Turbo (Stratagene) and following the attached protocol. The obtained 108 bp fragment was digested with restriction enzymes BglII and HindIII, and inserted into BglII-HindIII site of pGL3 to give plasmid pGL3/δ-cry promoter.
As 8× Gli-binding site, a sequence containing eight 9-bp Gli bound consensus sequences (GACCACCCA) described in Yoon et al., J. Biol. Chem., vol. 273, pages 3496-3501 (1998) was prepared from synthetic DNA. That is, two synthetic DNAs,
were heat treated at 95° C. for 2 minutes, and incubated at 37° C. for 1 hr for annealing to give a double stranded DNA of the above-mentioned two synthetic DNAs. The obtained double stranded DNA was digested with restriction enzymes BglII and KpnI, and the obtained DNA fragment was inserted into BglII-KpnI site of pGL3/δ-cry promoter to construct plasmid pGL3/δ-cry promoter, 8× Gli binding site, i.e., Gli reporter plasmid. 2. Construction of Plasmid for Expression of Mouse Shh-N End Fragment
As a material for construction of plasmid for Shh-N end fragment expression, mouse Shh cDNA was cloned at first.
The mouse Shh cDNA was cloned by Nested PCR method using mouse 11-day fetus cDNA (Clontech) as a template. The primer sequence was prepared in reference to the base sequence described in GenBank accession No.; NM_009170.
Using the mouse Shh cDNA sequence obtained as mentioned above as a template, a partial cDNA sequence wherein stop codon (TGA) was added to 3′-terminal of cDNA sequence encoding 1st to 198th amino acid sequence of mouse Shh was obtained by PCR method. As the primer set,
In the manner mentioned above, a plasmid for mouse Shh-N end fragment expression, pcDNA3.1/mShh-N, was constructed.
HEK293 cells were grown in D-MEM medium (Invitrogen) containing 10% fetal bovine serum in a 10 cm dish and pcDNA3.1/mShh-N was introduced into the cells using FuGENE6 (Roche Applied Science). Thereafter, the HEK293 cells were cultured in a carbon dioxide gas incubator at 37° C. for 24 hours, and the medium was exchanged with D-MEM medium (Invitrogen) containing 2% fetal bovine serum. After culturing for 48 hr, culture supernatant containing recombinant type mouse Shh-N end fragment was obtained by filtration using a filter ([…]).
Using D-MEM (Invitrogen) containing 10% fetal bovine serum, expression plasmid pcDNA3:1 and Gli reporter plasmid (pGL3/δ-cry promoter, 8× Gli binding site) produced by the method of Experimental Example 1 were introduced into NIH-3T3 cells grown in a 10 cm dish by the use of FuGENE6 (Roche Applied Science).
After culture for 24 hr, the cells were recovered, suspended in D-MEM medium containing 10% fetal bovine serum and supplemented with Geneticin (Life Technologies Oriental, Inc.) to a final concentration of 500 μg/ml, diluted to 10^4 cells/ml, plated on a 96 well plate, and cultured in a carbon dioxide gas incubator at 37° C. to give Geneticin resistant transformed cell line. […]
With `CCc1nc2c(cc1NC(=O)c1sccc1Cl)c(OC(C)C)c(C(=O)NC1CCN(C(=O)CO)CC1)n2C` [Example 63, 5-{[(3-chlorothiophen-2-yl)carbonyl]amino}-6-ethyl-N-[1-(hydroxyacetyl)piperidin-4-yl]-1-methyl-3-(1-methylethoxy)-1H-pyrrolo[2,3-b]pyridine-2-carboxamide] the inhibition at 1 µM was 96%. Compound `CCOc1c(C(=O)NC2CCN(C(=O)CO)CC2)n(C)c2nc(CC)c(NC(=O)c3ccccc3)cc12` [Example 45, 3-ethoxy-6-ethyl-N-[1-(hydroxyacetyl)piperidin-4-yl]-1-methyl-5-[(phenylcarbonyl)amino]-1H-pyrrolo[2,3-b]pyridine-2-carboxamide] has an inhibition at 1 µM of 98%. Work on `CCc1cc2sc(C(=O)NC3CCN(C(=O)CO)CC3)c(OC(C)C)c2cc1NC(=O)c1ccccc1` [Example 151, 6-ethyl-N-[1-(hydroxyacetyl)piperidin-4-yl]-3-(1-methylethoxy)-5-[(phenylcarbonyl)amino]-1-benzothiophene-2-carboxamide] yielded an inhibition at 1 µM of 98%. Compound `CCc1nc2c(cc1NC(=O)c1ccccc1)c(OC(C)C)c(C(=O)NCCS(=O)(=O)CCOC)n2C` [Example 60, 6-ethyl-N-{2-[(2-methoxyethyl)sulfonyl]ethyl}-1-methyl-3-(1-methylethoxy)-5-[(phenylcarbonyl)amino]-1H-pyrrolo[2,3-b]pyridine-2-carboxamide] has an inhibition at 1 µM of 95%. For `CCc1nc2c(cc1NC(=O)c1ccccn1)c(OCC(F)(F)F)c(C(=O)NC1CCN(C(=O)CO)CC1)n2C` [Example 42, 6-ethyl-N-[1-(hydroxyacetyl)piperidin-4-yl]-1-methyl-5-[(pyridin-2-ylcarbonyl)amino]-3-(2,2,2-trifluoroethoxy)-1H-pyrrolo[2,3-b]pyridine-2-carboxamide], the inhibition at 1 µM was 92%. `Cc1nc2c(nc1NC(=O)c1ccccc1)c(OCC(F)(F)F)c(C(=O)NC1CCN(C(=O)CO)CC1)n2C` [Example 145, N-[1-(hydroxyacetyl)piperidin-4-yl]-3,5-dimethyl-2-[(phenylcarbonyl)amino]-7-(2,2,2-trifluoroethoxy)-5H-pyrrolo[2,3-b]pyrazine-6-carboxamide] gave an inhibition at 1 µM of 98%. For `CCOc1c(C(=O)NC2CCN(C(=O)CO)CC2)n(C)c2nc(CC)c(NC(=O)c3ccc(F)cc3)cc12` [Example 39, 3-ethoxy-6-ethyl-5-{[(4-fluorophenyl)carbonyl]amino}-N-[1-(hydroxyacetyl)piperidin-4-yl]-1-methyl-1H-pyrrolo[2,3-b]pyridine-2-carboxamide], the inhibition at 1 µM was 96%. `CCc1nc2c(cc1NC(=O)c1ccccc1)c(OCC(F)(F)F)c(C(=O)N[C@H]1CC[C@H](O)CC1)n2C` [Example 37, 6-ethyl-N-(trans-4-hydroxycyclohexyl)-1-methyl-5-[(phenylcarbonyl)amino]-3-(2,2,2-trifluoroethoxy)-1H-pyrrolo[2,3-b]pyridine-2-carboxamide] was tested, and the inhibition at 1 µM was 87%. Work on `CCc1cc2c(nc1NC(=O)c1cccs1)c(OC(C)C)c(C(=O)NC1CCN(C(=O)CO)CC1)n2C` [Example 133, 6-ethyl-N-[1-(hydroxyacetyl)piperidin-4-yl]-1-methyl-3-(1-methylethoxy)-5-[(thiophen-2-ylcarbonyl)amino]-1H-pyrrolo[3,2-b]pyridine-2-carboxamide] yielded an inhibition at 1 µM of 90%. `Cc1cc2sc(C(=O)NC3CCN(C(=O)CO)CC3)c(OCC(F)(F)F)c2cc1NC(=O)c1ccccc1` [Example 68, N-[1-(hydroxyacetyl)piperidin-4-yl]-6-methyl-5-[(phenylcarbonyl)amino]-3-(2,2,2-trifluoroethoxy)-1-benzothiophene-2-carboxamide] gave an inhibition at 1 µM of 96%. `CCc1nc2c(nc1-c1ccccc1)c(OCC(F)(F)F)c(C(=O)NC1CCN(C(=O)CO)CC1)n2C` [Example 144, 3-ethyl-N-[1-(hydroxyacetyl)piperidin-4-yl]-5-methyl-2-phenyl-7-(2,2,2-trifluoroethoxy)-5H-pyrrolo[2,3-b]pyrazine-6-carboxamide] gave an inhibition at 1 µM of 98%. `CCc1nc2c(cc1NC(=O)c1cccs1)c(OCC(F)(F)F)c(C(=O)NC1CCN(C(=O)CO)CC1)n2C` [Example 29, 6-ethyl-N-[1-(hydroxyacetyl)piperidin-4-yl]-1-methyl-5-[(thiophen-2-ylcarbonyl)amino]-3-(2,2,2-trifluoroethoxy)-1H-pyrrolo[2,3-b]pyridine-2-carboxamide] gave an inhibition at 1 µM of 95%. For `CCc1nc2c(cc1NC(=O)c1ccc(F)cc1)c(OC(C)C)c(C(=O)NC1CCN(C(=O)CO)CC1)n2C` [Example 33, 6-ethyl-5-{[(4-fluorophenyl)carbonyl]amino}-N-[1-(hydroxyacetyl)piperidin-4-yl]-1-methyl-3-(1-methylethoxy)-1H-pyrrolo[2,3-b]pyridine-2-carboxamide], the inhibition at 1 µM was 95%. For `CCc1nc2c(cc1NC(=O)c1ccsc1)c(OCC(F)(F)F)c(C(=O)NC1CCN(C(=O)CO)CC1)n2C` [Example 50, 6-ethyl-N-[1-(hydroxyacetyl)piperidin-4-yl]-1-methyl-5-[(thiophen-3-ylcarbonyl)amino]-3-(2,2,2-trifluoroethoxy)-1H-pyrrolo[2,3-b]pyridine-2-carboxamide], the inhibition at 1 µM was 94%. With `CCc1nc2c(cc1NC(=O)c1nccs1)c(OCC(F)(F)F)c(C(=O)NC1CCN(C(=O)CO)CC1)n2C` [Example 69, 6-ethyl-N-[1-(hydroxyacetyl)piperidin-4-yl]-1-methyl-5-[(1,3-thiazol-2-ylcarbonyl)amino]-3-(2,2,2-trifluoroethoxy)-1H-pyrrolo[2,3-b]pyridine-2-carboxamide] the inhibition at 1 µM was 99%. `CCc1cc2c(cc1NC(=O)c1ccsc1)c(OCC(F)(F)F)c(C(=O)NC1CCN(C(=O)CO)CC1)n2C` [Example 147, 6-ethyl-N-[1-(hydroxyacetyl)piperidin-4-yl]-1-methyl-5-[(thiophen-3-ylcarbonyl)amino]-3-(2,2,2-trifluoroethoxy)-1H-indole-2-carboxamide] gave an inhibition at 1 µM of 91%. In the case of `CCc1nc2c(cc1NC(=O)c1ccc(Cl)cc1)c(OCC(F)(F)F)c(C(=O)NC1CCN(C(=O)CO)CC1)n2C` [Example 32, 5-{[(4-chlorophenyl)carbonyl]amino}-6-ethyl-N-[1-(hydroxyacetyl)piperidin-4-yl]-1-methyl-3-(2,2,2-trifluoroethoxy)-1H-pyrrolo[2,3-b]pyridine-2-carboxamide], the inhibition at 1 µM is reported as 98%. `CCc1nc2c(cc1NC(=O)c1ccc(Cl)s1)c(OC(C)C)c(C(=O)NC1CCN(C(=O)CO)CC1)n2C` [Example 59, 5-{[(5-chlorothiophen-2-yl)carbonyl]amino}-6-ethyl-N-[1-(hydroxyacetyl)piperidin-4-yl]-1-methyl-3-(1-methylethoxy)-1H-pyrrolo[2,3-b]pyridine-2-carboxamide] showed an inhibition at 1 µM of 95%. Work on `CCc1nc2c(nc1NC(=O)c1ccccc1)c(OCC(F)(F)F)c(C(=O)NC1CCN(C(=O)CO)CC1)n2C` [Example 160, 3-ethyl-N-[1-(hydroxyacetyl)piperidin-4-yl]-5-methyl-2-[(phenylcarbonyl)amino]-7-(2,2,2-trifluoroethoxy)-5H-pyrrolo[2,3-b]pyrazine-6-carboxamide] yielded an inhibition at 1 µM of 99%. With `Cc1nc2c(cc1NC(=O)c1ccccc1)c(OC(C)C)c(C(=O)NC1CCN(C(=O)CO)CC1)n2C` [Example 155, N-[1-(hydroxyacetyl)piperidin-4-yl]-1,6-dimethyl-3-(1-methylethoxy)-5-[(phenylcarbonyl)amino]-1H-pyrrolo[2,3-b]pyridine-2-carboxamide] the inhibition at 1 µM was 99%.
